From ChEMBL document CHEMBL1142166, “Inhibition of antiassociation activity of translation initiation factor 3 by paromomycin” (2007)
Active and inactive are the calls of the source. No cut-off for these calls is given here.

Experiments:
Escherichia coli [1] = assay: Association of ribosome subunits into 70S ribosome of Escherichia coli MRE600 assessed upto 20 uM in the presence of 1 mM Mg2+; type: functional
[2] = target: T1, Translation initiation factor IF-3 (Escherichia coli K-12) (UniProt P0A707); assay: Inhibition of Escherichia coli XL1-Blue IF3 antiassociation activity at 0.1 uM in the presence of 8.2 mM Mg2+
T1 sequence (whole entry): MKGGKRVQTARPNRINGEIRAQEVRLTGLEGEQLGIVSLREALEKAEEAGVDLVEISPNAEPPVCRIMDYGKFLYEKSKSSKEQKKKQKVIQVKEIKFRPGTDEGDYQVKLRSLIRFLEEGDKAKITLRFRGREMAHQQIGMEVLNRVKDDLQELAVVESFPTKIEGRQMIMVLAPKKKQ

[3] = target: T1, Translation initiation factor IF-3 (Escherichia coli K-12); assay: Inhibition of Escherichia coli XL1-Blue IF3 binding to 30S subunit at 100 uM in presence of 8.2 mm Mg2+
Escherichia coli [4] = assay: Association of ribosome subunits into 70S ribosome of Escherichia coli MRE600 in presence of 4 mM Mg2+; type: functional
Escherichia coli [5] = assay: Association of ribosome subunits into 70S ribosome of Escherichia coli MRE600 at 0.1 mM in presence of 4 mM Mg2+; type: functional
Escherichia coli [6] = assay: Association of ribosome subunits into 70S ribosome of Escherichia coli MRE600 in presence of 6 mM Mg2+; type: functional
Escherichia coli [7] = assay: Association of ribosome subunits into 70S ribosome of Escherichia coli MRE600 assessed above 20 uM in the presence of 1 mM Mg2+; type: functional, organism-based

For NC[C@@H]1O[C@H](O[C@H]2[C@@H](O)[C@H](O[C@@H]3[C@@H](O)[C@H](N)C[C@H](N)[C@H]3O[C@H]3O[C@H](CO)[C@@H](O)[C@H](O)[C@H]3N)O[C@@H]2CO)[C@H](N)[C@@H](O)[C@@H]1O [PAROMOMYCIN], the Activity (Escherichia coli [1]) was 50%, the Activity [2] was “Active” and the Activity [3] was “inactive”. For the same molecule, the Activity (Escherichia coli [4]) was 40%, the Activity (Escherichia coli [5]) was 70% and the Activity (Escherichia coli [6]) was 55%. The Activity (Escherichia coli [7]) was “inactive”.
